Read-outs that look alike come from different tables or passages of the source. Marks after values point to notes of the source that are not given here.
Assays:
[1] = cited from earlier work
[2] = Maximum plasma concentration from in vivo pharmacokinetic studies after therapeutic dosing; conditions: human, the literature Cmax (ng/mL) of Table 2 expressed in µM
Excerpt: As Cmax the (geometric) mean or median maximum plasma concentrations obtained from previous in vivo pharmacokinetic studies after therapeutic dosing was used.

OCT2 = tested on: OCT2; parameters: method as in PMID 20053795; conditions: 50 µM; HeLa cells, metformin as substrate; cited from earlier work
human OCT1 = target: T1, human OCT1 (Homo sapiens, UniProt O15245); assay: Inhibition of OCT1-mediated ASP uptake in transduced HEK293 cells; assay type: cell-based; conditions: 50 µM anti-malarial, 10 µM ASP, 10 min, 37 °C; relative to solvent control fixed at 100%
T1 construct: host or cells: HEK293, baculovirus transduction (CMV promoter), transient
T1 sequence (O15245 1-554): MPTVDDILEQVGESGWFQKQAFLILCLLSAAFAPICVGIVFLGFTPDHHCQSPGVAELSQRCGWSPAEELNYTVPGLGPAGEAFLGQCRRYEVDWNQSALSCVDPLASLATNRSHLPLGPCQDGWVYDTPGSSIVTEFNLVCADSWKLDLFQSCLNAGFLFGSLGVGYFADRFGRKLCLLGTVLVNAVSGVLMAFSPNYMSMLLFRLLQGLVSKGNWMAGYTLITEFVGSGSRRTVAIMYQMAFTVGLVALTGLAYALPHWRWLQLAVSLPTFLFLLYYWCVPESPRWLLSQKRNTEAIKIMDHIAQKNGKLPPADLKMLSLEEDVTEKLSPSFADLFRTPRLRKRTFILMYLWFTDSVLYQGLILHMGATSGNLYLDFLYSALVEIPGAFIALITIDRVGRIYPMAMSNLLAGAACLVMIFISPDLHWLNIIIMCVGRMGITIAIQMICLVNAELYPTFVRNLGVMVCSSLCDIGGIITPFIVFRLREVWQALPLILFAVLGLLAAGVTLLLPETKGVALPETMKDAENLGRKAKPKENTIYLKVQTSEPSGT
Procedure: (§1) HEK293 cells were modified to transiently express (a combination of) human OCT1, OCT2, MATE1, MATE2-K, or eYFP. Briefly, cDNA of the respective genes was cloned downstream of a CMV promoter into a baculovirus, of which passage three was used to transduce HEK293 cells. These cells were seeded in poly-D-lysine coated 24- or 96-wells plates and grown in a 37 °C incubator at 5% CO2. Growth was initiated at ~ 25% confluency using 375 or 125 μL cell and complete medium (DMEM + GlutaMAX™-I supplemented with 10% fetal bovine serum) suspension per well, respectively. After 24 h, cells were transduced with 30 µL virus (10 µL virus + 20 µL complete medium in case of 96-wells plates) or 2 × 15 µL virus for cells that required simultaneous expression of two transporters. Finally, 195 µL sodium butyrate (45 µL for 96-wells plates) was added to a final concentration of 2 mM to enhance protein expression.
AMO (10 mM), ASP (1 mM), CQ (10 mM), PQ (10 mM) and PG (10 mM) were dissolved in MilliQ water. ART (10 mM), ATO (10 mM), DHA (10 mM), LUM (10 mM), MQ (10 mM), NMQ (20 mM), PYR (10 mM), QN (10 mM) were dissolved in DMSO. All compound stocks were stored at − 20 °C. Inhibition of OCT1- or OCT2-mediated ASP uptake by anti-malarials was performed in poly-D-lysine coated 96-wells plates 2 or 3 days following HEK293 cell transduction. In short, cells were washed with 125 µL 37 °C HBSS containing 10 mM HEPES, pH 7.4. Then, a 50 µL mixture of ASP (10 µM) and anti-malarial compound (25, 50 or 100 µM) in HBSS buffer (pH 7.4) was added to each well and incubated for 10 min at 37 °C. ASP transport was stopped by washing with 125 µL ice-cold HBSS-HEPES buffer supplemented with 0.5% BSA. Following a second wash with 125 µL ice-cold HBSS-HEPES buffer, cells were lysed with 125 µL 1 M NaOH and ASP was excited at a wavelength of 485 nm and fluorescence was detected at an emission wavelength of 535 nm using the Victor X3 multimode plate reader.
(§2) For each compound, a range of seven concentrations was used to determine the concentration at which ASP uptake was inhibited half maximally (IC50). At least three independent experiments (4 for QN) were performed for each drug in triplicate as described above. Inhibition curves were plotted by nonlinear regression analyses of the data using GraphPad Prism version 5.03. […] To generate the final dose–response inhibition curve per anti-malarial, percentage of uptake was averaged for each drug concentration per experiment and the resulting mean ± SEM corresponding to three or four independent experiments were plotted.

[3] = cited from earlier work; remark: listed apart in the source
human OCT2 [4] = target: T2, human OCT2 (Homo sapiens, UniProt O15244); parameters: method as in PMID 21544077; conditions: HEK293 cells stably expressing human OCT2; read-out: Ki for OCT2-mediated MET uptake; cited from earlier work
T2 construct: host or cells: HEK293, baculovirus transduction (CMV promoter), transient
T2 sequence (O15244 1-555): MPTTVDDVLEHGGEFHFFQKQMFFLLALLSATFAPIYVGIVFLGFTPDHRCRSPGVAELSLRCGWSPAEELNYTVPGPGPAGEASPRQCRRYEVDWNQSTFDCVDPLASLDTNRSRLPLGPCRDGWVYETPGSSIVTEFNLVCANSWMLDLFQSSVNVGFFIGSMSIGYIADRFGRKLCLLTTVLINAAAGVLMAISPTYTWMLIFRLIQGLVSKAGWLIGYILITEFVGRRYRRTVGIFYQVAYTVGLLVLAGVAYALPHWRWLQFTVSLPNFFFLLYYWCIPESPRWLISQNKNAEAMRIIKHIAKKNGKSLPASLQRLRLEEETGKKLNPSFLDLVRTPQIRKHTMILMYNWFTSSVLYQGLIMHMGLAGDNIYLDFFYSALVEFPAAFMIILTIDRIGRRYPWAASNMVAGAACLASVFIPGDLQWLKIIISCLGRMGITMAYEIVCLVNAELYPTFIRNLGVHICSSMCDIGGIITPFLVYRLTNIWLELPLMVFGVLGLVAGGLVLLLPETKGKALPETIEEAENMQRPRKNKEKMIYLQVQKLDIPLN

human OCT2 [5] = target: T2, human OCT2; assay: Inhibition of OCT2-mediated ASP uptake in transduced HEK293 cells; assay type: cell-based; conditions: 10 µM ASP, 10 min, 37 °C
Procedure: as §1, with “Growth was initiated at ~ 25% confluency using 375 or 125 μL cell and complete medium (DMEM + GlutaMAX™-I supplemented with 10% fetal bovine serum) suspension per well, respectively.” left out
AMO (10 mM), ASP (1 mM), CQ (10 mM), PQ (10 mM) and PG (10 mM) were dissolved in MilliQ water. ART (10 mM), ATO (10 mM), DHA (10 mM), LUM (10 mM), MQ (10 mM), NMQ (20 mM), PYR (10 mM), QN (10 mM) were dissolved in DMSO. All compound stocks were stored at − 20 °C. Inhibition of OCT1- or OCT2-mediated ASP uptake by anti-malarials was performed in poly-D-lysine coated 96-wells plates 2 or 3 days following HEK293 cell transduction. In short, cells were washed with 125 µL 37 °C HBSS containing 10 mM HEPES, pH 7.4. […] ASP transport was stopped by washing with 125 µL ice-cold HBSS-HEPES buffer supplemented with 0.5% BSA.
as §2, with “above.” for “above. Inhibition curves were plotted by nonlinear regression analyses of the data using GraphPad Prism version 5.03.”

OCT1 = tested on: OCT1; parameters: method as in PMID 25914645; conditions: read-out: Absolute IC50 for OCT1; cited from earlier work
[6] = substrate: [H]/N=C(\N/C(=N/[H])Nc1ccc(Cl)cc1)NC(C)C; assay: OCT2-mediated cellular import in transduced HEK293 cells (LC-MS/MS); assay type: cell-based, human; conditions: other: 1 min incubation, 37 °C, 2.0–16 µM, pH 7.4
Procedure: HEK293 cells were modified to transiently express (a combination of) human OCT1, OCT2, MATE1, MATE2-K, or eYFP. Briefly, cDNA of the respective genes was cloned downstream of a CMV promoter into a baculovirus, of which passage three was used to transduce HEK293 cells. These cells were seeded in poly-D-lysine coated 24- or 96-wells plates and grown in a 37 °C incubator at 5% CO2. Growth was initiated at ~ 25% confluency using 375 or 125 μL cell and complete medium (DMEM + GlutaMAX™-I supplemented with 10% fetal bovine serum) suspension per well, respectively. […]
HEK293 cells were seeded in 24-wells poly-D-lysine coated plates and transduced the subsequent day with OCT1 or OCT2 as described above. […] Following a second wash with 400 µL ice-cold HBSS-HEPES buffer, cells were lysed with 200 µL 50% (v/v) MeOH and 0.1% (v/v) formic acid (HCOOH) in water and samples were sent for quantification by mass spectrometry analysis (see “LC–MS/MS quantification of anti-malarials” section). […]
The affinity (KM) and maximum transport rate (Vmax) for OCT1 and OCT2 of PG were determined by analysing concentration-dependent uptake data from three independent experiments.
Import and export of PG and cycloguanil (CG) was assessed by single and double transduced HEK293 cells. […]

## CCc1nc(N)nc(N)c1-c1ccc(Cl)cc1 [Pyrimethamine, pyrimethamine]
[1]
  Unbound fraction: 0.06 [49]
[2]
  Cmax: 1.1 µM
OCT2
  Reduction of OCT2 activity: 60%
Human OCT1
  Relative ASP uptake (OCT1-mediated): 59 ± 6%
[3]; patients with acute falciparum malaria, (geometric) mean or median
  Cmax: 281^e [48] ng/mL
Human OCT2 [4]
  Ki: 10 µM
Human OCT2 [5]; seven concentrations
  IC50: 1.6 µM
Human OCT2 [5]; 50 µM anti-malarial, relative to solvent control fixed at 100%
  Relative ASP uptake (OCT2-mediated): 6 ± 2%

## O=C1Nc2ccc(Cl)cc2[C@@](C#CC2CC2)(C(F)(F)F)O1 [EFV, efavirenz]
OCT1
  IC50: 22 µM
[1]
  Unbound in plasma: about 0.22%
  Unbound maximum plasma concentration: 0.03 µM
[3]
  Maximum plasma concentration: 13 µM

B1: human OCT2 (Homo sapiens) (protein)
chain: T2 sequence (O15244 1-555)
notes: host or cells: HEK293, baculovirus transduction (CMV promoter), transient
[6]
  Km: 9.0 µM

— article PMC5654082 (Malaria Journal, 2017)
